Laboratory results reported in patent publication US8604085B2, “Bupropion hydrobromide polymorphs” (Valeant International Bermuda, priority 2008, dated 2013).
Read-outs that look alike come from different tables or passages of the source.

How the values were obtained:
[1] = Precipitation by anti-solvent (ethyl acetate) addition at room temperature; format: physicochemical
Description: The samples were filtered and analyzed by X-ray diffraction. Form I converts into Form II using chloroform, and also with benzyl alcohol. The other experiments yield only Form I. See Table 54 for Form I precipitation results by anti-solvent addition.

[2] = Qualitative solubility screening; format: physicochemical; conditions: thermodynamic from solid, 50 mg in 4 mL, read-out: Solubility at Room Temp (RT)
Experimental: Bupropion hydrobromide (50 mg) was introduced in 4 mL of solvent under stirring for about 1 hour at room temperature. See Table 41 for the qualitative solubility data.

Q: For Br.CC(NC(C)(C)C)C(=O)c1cccc(Cl)c1 (single isomer, unassigned) [Form I], which “Precipitation Result” value ([1]; solvent 1-Butanol) is on record?
A: Form I

Q: What about the “Precipitation Result” value ([1]; solvent 1-Methyl-2-Pyrrolidone) of the same molecule?
A: Form I

Q: What about the “Precipitation Result” value ([1]; solvent 1-Propanol) of the same molecule?
A: Form I

Q: And the “Precipitation Result” value ([1]; solvent 2-Methoxy Ethanol)?
A: Form I

Q: What about the “Precipitation Result” value ([1]; solvent 2-Methyl-1-Propanol) of the same molecule?
A: Form I

Q: And the “Precipitation Result” value ([1]; solvent 2-Propanol)?
A: Form I

Q: What about the “Precipitation Result” value ([1]; solvent Benzyl Alcohol) of the same molecule?
A: Form II

Q: And the “Precipitation Result” value ([1]; solvent Chloroform)?
A: Form II

Q: And the “Precipitation Result” value ([1]; solvent Dichloromethane)?
A: Form I

Q: What about the “Precipitation Result” value ([1]; solvent Dimethylformamide) of the same molecule?
A: Form I

Q: And the “Precipitation Result” value ([1]; solvent Ethanol)?
A: Form I

Q: What about the “Precipitation Result” value ([1]; solvent Methanol) of the same molecule?
A: Form I

Q: Which results are given for Br.CC(NC(C)(C)C)C(=O)c1cccc(Cl)c1 (stereo not drawn) [Bupropion hydrobromide, 3′-chloro-2-t-butylamino-1-propiophenone hydrobromide]?
A: solubility ([2]; organic solvent or mixture, solvent 1,2-Dimethoxy Ethane): < 12.5 mg/mL; solubility ([2]; organic solvent or mixture, solvent 1-Butanol): > 12.5 mg/mL; solubility ([2]; organic solvent or mixture, solvent 1-Methyl-2-Pyrrolidone): > 12.5 mg/mL; solubility ([2]; organic solvent or mixture, solvent 1-Octanol): < 12.5 mg/mL; solubility ([2]; organic solvent or mixture, solvent 1-Propanol): > 12.5 mg/mL; solubility ([2]; organic solvent or mixture, solvent 2-Methoxy Ethanol): > 12.5 mg/mL; solubility ([2]; organic solvent or mixture, solvent 2-Methyl-1-Propanol): > 12.5 mg/mL; solubility ([2]; organic solvent or mixture, solvent 2-Propanol): > 12.5 mg/mL; solubility ([2]; organic solvent or mixture, solvent 3-Pentanone): < 12.5 mg/mL; solubility ([2]; organic solvent or mixture, solvent 4-Methyl-2-Pentanone): < 12.5 mg/mL; solubility ([2]; organic solvent or mixture, solvent (±)2-Butanol): < 12.5 mg/mL; solubility ([2]; organic solvent or mixture, solvent Acetone): < 12.5 mg/mL; solubility ([2]; organic solvent or mixture, solvent Acetonitrile): > 12.5 mg/mL; solubility ([2]; organic solvent or mixture, solvent Benzonitrile): < 12.5 mg/mL; solubility ([2]; organic solvent or mixture, solvent Benzyl Alcohol): > 12.5 mg/mL; solubility ([2]; organic solvent or mixture, solvent Chloroform): > 12.5 mg/mL; solubility ([2]; organic solvent or mixture, solvent Cyclohexane): < 12.5 mg/mL; solubility ([2]; organic solvent or mixture, solvent Dichloromethane): > 12.5 mg/mL; solubility ([2]; organic solvent or mixture, solvent Diethyl Carbonate): < 12.5 mg/mL; solubility ([2]; organic solvent or mixture, solvent Diethyl Ether): < 12.5 mg/mL; solubility ([2]; organic solvent or mixture, solvent Dimethil sulfoxyde): > 12.5 mg/mL; solubility ([2]; organic solvent or mixture, solvent Dimethyl Formamide): > 12.5 mg/mL; solubility ([2]; organic solvent or mixture, solvent Dioxane): < 12.5 mg/mL; solubility ([2]; organic solvent or mixture, solvent Ethanol): > 12.5 mg/mL; solubility ([2]; organic solvent or mixture, solvent Ethyl Acetate): < 12.5 mg/mL; solubility ([2]; organic solvent or mixture, solvent Ethyl Benzoate): < 12.5 mg/mL; solubility ([2]; organic solvent or mixture, solvent Ethyl Formate): < 12.5 mg/mL; solubility ([2]; organic solvent or mixture, solvent Iso-Propyl-Ether): < 12.5 mg/mL; solubility ([2]; organic solvent or mixture, solvent Isopropyl Acetate): < 12.5 mg/mL; solubility ([2]; organic solvent or mixture, solvent Mesitylene): < 12.5 mg/mL; solubility ([2]; organic solvent or mixture, solvent Methanol): > 12.5 mg/mL; solubility ([2]; organic solvent or mixture, solvent Methyl Benzoate): < 12.5 mg/mL; solubility ([2]; organic solvent or mixture, solvent Methyl Ethyl Ketone): < 12.5 mg/mL; solubility ([2]; organic solvent or mixture, solvent Methyl-Cyclohexan): < 12.5 mg/mL; solubility ([2]; organic solvent or mixture, solvent Nitrobenezene): < 12.5 mg/mL; solubility ([2]; organic solvent or mixture, solvent Nitromethane): > 12.5 mg/mL; solubility ([2]; organic solvent or mixture, solvent Propyl Acetate): < 12.5 mg/mL; solubility ([2]; organic solvent or mixture, solvent Tert-Butanol): < 12.5 mg/mL; solubility ([2]; organic solvent or mixture, solvent Tetrahydrofuran): < 12.5 mg/mL; solubility ([2]; organic solvent or mixture, solvent Toluene): < 12.5 mg/mL; solubility ([2]; organic solvent or mixture, solvent n-Hexan): < 12.5 mg/mL; solubility ([2]; organic solvent or mixture, solvent n-Hexane): < 12.5 mg/mL; solubility ([2]; organic solvent or mixture, solvent p-Xylene): < 12.5 mg/mL; solubility ([2]; organic solvent or mixture, solvent t-Butyl Methyl Ether): < 12.5 mg/mL; solubility ([2]; water, solvent Water): > 12.5 mg/mL
